Data set [1] has as its system hypertensive action by angiotensin II. Kind of data set: Inhibition on the hypertensive action by an exogenous angiotensin II in conscious rats. The following applies: oral; for ED50: Rattus norvegicus, within 6 hours after administration, read-out: ED50 (dose required for inhibiting the hypertensive action by angiotensin II to the extent of 50%); for inhibitory effect on the hypertensive action by angiotensin II: angiotensin II 0.1 μg/kg i.v. In kind it is in vivo, Spraque-Dawley (SD) male rats. An excerpt:
(§1) The angiotensin II antagonistic activities in vitro were compared on the basis of the intensities (pA2 value) of antagonizing the contraction response to angiotensin II at the isolated thoracic aorta of rabbit. The in vivo activities were examined by comparing the inhibitory effects on the hypertensive action by an exogenous angiotensin II in a non-anesthetized rat and the hypotensive effects of a renal hypertensive rat or a spontaneously hypertensive rat.
Anesthetized Spraque-Dawley (SD) male rats were cannulated into a femoral artery and a femoral vein and used for the experiment at the time when it has elapsed at least 24 hours after the operation. The hypertensive action caused by angiotensin II (0.1 μg/kg) which has been administered through the vein catheter was measured under conscious and unrestrained condition before and after administration of the compound. The artery catheter was connected to a pressure transducer to measure a mean blood pressure, and the subject compounds were orally administered in the form of a homogeneous suspension in a 0.5% aqueous carboxymethyl cellulose solution.
The intensities of the inhibitory effects within 6 hours after administration of the compound were examined on the basis of the dose of the compound required for inhibiting the hypertensive action by angiotensin II to the extent of 50% (ED50 values).

Data set [2] concerns the target T1, contraction response to angiotensin II at the isolated thoracic aorta of rabbit (Oryctolagus cuniculus, UniProt P34976).
T1 construct: A strip of thoracic aorta of a male rabbit (2.5-3.0 kg) was prepared by the usual method; from tissue; host or cells: rabbit thoracic aorta strip
T1 sequence (P34976 1-359): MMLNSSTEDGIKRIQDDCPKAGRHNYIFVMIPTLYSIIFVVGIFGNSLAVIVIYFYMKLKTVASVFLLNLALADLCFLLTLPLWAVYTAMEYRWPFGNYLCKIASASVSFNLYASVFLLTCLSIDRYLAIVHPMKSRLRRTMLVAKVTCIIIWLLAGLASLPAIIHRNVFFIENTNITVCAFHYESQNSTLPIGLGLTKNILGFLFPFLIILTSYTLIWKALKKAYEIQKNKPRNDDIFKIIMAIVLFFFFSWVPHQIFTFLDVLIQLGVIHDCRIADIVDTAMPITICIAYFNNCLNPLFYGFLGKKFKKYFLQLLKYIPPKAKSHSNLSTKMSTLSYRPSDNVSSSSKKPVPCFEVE
Kind of data set: In vitro angiotensin II antagonism, isolated rabbit thoracic aorta (Schild pA2). Particulars: Schild plot. Type of data set: cell-based.
Text: as §1
A strip of thoracic aorta of a male rabbit (2.5-3.0 kg) was prepared by the usual method and suspended in an organ bath containing well oxygenated Krebs-Henseleit solution at 37° C. The pA2 value was calculated according to the method described by H. O. Schild (British Journal of Pharmacology and Chemotherapeutics, 2, 189-206, 1947). A strip treated with 3-5 doses of a subject compound in an amount of 10^-6 M-10^-10 M and a strip treated with no drug were employed for obtaining a dose-response curve by angiotensin II. Log (dose ratio--1) was calculated from the shift of the dose-response curve of the subject compound, and pA2 value was obtained from the Schild plottings.

Data set [3] can be described thus: Toxicity test, oral, mice. Particulars: mouse, in vivo, ddY male mice 5 weeks old. The method, then:
Several compounds of the present invention represented by the general formula (I) were administered orally by compulsion to ddY male mice of 5 weeks old (average weight, ca. 20 g).

The test system of data set [4] is Fisher 344 male rats. Kind of data set: Antianxiety effect, elevated plus maze. In kind it is in vivo. Particulars: diazepam 3 mg/kg. The method, then:
The subject compounds were examined on their antianxiety effect with the light and dark box according to the method described by B. Costall et al. (Pharmacology Biochemistry and Behavior, 32, 777-785, 1989) and with the elevated plus maze by S. Pell et al. (Journal of Neuroscience Methods, 14, 149-167, 1985).
To Fisher 344 male rats (5-6 weeks old), the subject compounds were orally administered at a dose of 1-100 μg/kg in the form of a homogeneous suspension or solution in a 0.5% aqueous carboxymethyl cellulose solution. Among the four arms of the elevated plus maze (a device in which four arms are intersected crosswise and connected together at a height of 50 cm from the floor), the two arms with side walls are referred to as closed arms and the two arms without side walls are referred to as open arms. […] As the indices of the behavior, the latency until stepped out from the arm first placed to the other arm and the durations in the respective arms were measured, and the other behaviors were recorded. Diazepam was used as a control agent, and the drug administered group and the solvent administered group (group to which a 0.5% aqueous carboxymethyl cellulose solution was administered)were compared for the behaviors.

Structures are written as SMILES.

The ED50 is the dose at which the effect has come halfway, by size or by number of responders. The Kb is the equilibrium dissociation constant of an antagonist, usually derived from a functional assay. A high value points to lower antagonist affinity. The LD50 is the dose expected to kill half of the subjects tested. A low value points to a more toxic substance.

For `CCOc1c(OCc2ccc(-c3ccccc3C(=O)O)cc2)cc(C)nc1C` [Example 83, 3-ethoxy-2,6-dimethyl-4-(2'-carboxybiphenyl-4yl)methoxypyridine], the ED50 in data set [1] was 1.21 mg/kg. Besides, the “inhibitory effect on the hypertensive action by angiotensin II” value (shortened to “inhibitory effect”) in data set [1] (dose of 1 mg/kg or less) was “significant inhibitory effects”. Besides, in data set [2], the Kb was 28.2 nM. In data set [3], this compound gave an LD50 of over 1000 mg/kg.
Regarding `Cc1cc(OCc2ccc(-c3ccccc3-c3nnn[nH]3)cc2)c(C(=O)N(C)C)c(C)n1` [Example 53, 2,6-Dimethyl-3-(N,N-dimethylcarbamoyl)-4-[2'-(tetrazol-5-yl)bipbenyl-4-yl]methoxypyridine], in data set [1] (3 mg/kg), the “inhibitory effect” value is reported as “significant inhibitory effects”. Moreover, the Kb in data set [2] was 3.02 nM.
For `Cc1cc(OCc2ccc(-c3ccccc3-c3nn[nH]n3)cc2)c(CO)c(C)n1` [Example 55, 3-Hydroxymethyl-2,6-dimethyl-4-[2'-(tetrazol-5-yl)biphenyl-4-yl]methoxypyridine], in data set [2], the Kb was 12.3 nM.
As for `CCc1nc(C)cc(OCc2ccc(-c3ccccc3-c3nnn[nH]3)cc2)c1OC` [Example 16, 2-ethyl-3-methoxy-6-methyl-4-[2'-(tetrazol-5-yl)biphenyl-4-yl]methoxypyridine], the “inhibitory effect” value in data set [1] (dose of 1 mg/kg or less) is reported as “significant inhibitory effects”. This compound gave an antagonist dissociation constant (Kb) in data set [2] of 0.912 nM.
The matching figures for `CCc1nc(C)cc(OCc2ccc(-c3ccccc3-c3nnn[nH]3)cc2)c1C(=O)OC` [Example 46, 2-ethyl-3-methoxycarbonyl-6-methyl-4-[2'-(tetrazol-5-yl)-biphenyl-4-yl]methoxypyridine]: “significant inhibitory effects” and 0.617 nM.
Turning to `CCc1cc(OCc2ccc(-c3ccccc3-c3nnn[nH]3)cc2)cc(C)n1` [Example 3, 2-ethyl-6-methyl-4-[2'-(tetrazol-5-yl)biphenyl-4-yl]-methoxypyridine], in data set [1], the ED50 came out at 1.35 mg/kg. This compound also had a Kb in data set [2] of 5.75 nM. Besides, the LD50 in data set [3] is over 1000 mg/kg.
Regarding `CC(=O)OCc1c(OCc2ccc(-c3ccccc3-c3nnn[nH]3)cc2)cc(C)nc1C` [Example 67, 3-Acetoxymethyl-2,6-dimethyl-4-[2'-(tetrazol-5-yl)-biphenyl-4-yl]methoxypyridine], the Kb in data set [2] was 0.129 nM.
Still for that read-out and setting: to `Cc1cc(OCc2ccc(-c3ccccc3-c3nnn[nH]3)cc2)c(C=O)c(C)n1` [Example 68, 3-Formyl-2,6-dimethyl-4-[2'-(tetrazol-5-yl)biphenyl-4-yl]methoxypyridine] belongs 5.89 nM.
Take `CCOC(=O)c1c(OCc2ccc(-c3ccccc3-c3nnn[nH]3)cc2)cc(CC)nc1C` [Example 44, 3-ethoxycarbonyl-6-ethyl-2-methyl-4-[2'-(tetrazol-5-yl)-biphenyl-4-yl]methoxypyridine]: the “inhibitory effect” value in data set [1] (3 mg/kg) is listed as “significant inhibitory effects”. The same compound had a Kb in data set [2] of 1 nM.
With `CN1C(=O)CN=C(c2ccccc2)c2cc(Cl)ccc21` [diazepam], in data set [4], the “duration out of the closed arm” value was “increased”, the “latency until stepped out from the arm first placed” value is given as “significantly decreased” and the transitions result is given as “increased”.
As for `CCOc1c(OCc2ccc(-c3ccccc3-c3nnn[nH]3)cc2)cc(C)nc1C` [Example 12, 3-ethoxy-2,6-dimethyl-4-[2'-(tetrazol-5-yl)biphenyl-4-yl]methoxypyridine], in data set [1], the ED50 turned out to be 0.56 mg/kg. Also, the “inhibitory effect” value in data set [1] (dose of 1 mg/kg or less) is given as “significant inhibitory effects”. In data set [2], this compound showed a Kb of 1.74 nM. The LD50 in data set [3] is over 1000 mg/kg.
As to `CCc1cc(OCc2ccc(-c3ccccc3C(=O)O)cc2)cc(CC)n1` [Example 81, 2,6-diethyl-4-(2'-carboxybiphenyl-4-yl)m ethoxypyridine], the “inhibitory effect” value in data set [1] (3 mg/kg) is on record as “significant inhibitory effects”. Further, the Kb in data set [2] is 9.77 nM.
Take `COCc1c(OCc2ccc(-c3ccccc3-c3nnn[nH]3)cc2)cc(C)nc1C` [Example 57, 3-Methoxymethyl-2,6-dimethyl-4-[2'-(tetrazol-5-yl)-biphenyl-4-yl]methoxypyridine]: the “inhibitory effect” value in data set [1] (3 mg/kg) is “significant inhibitory effects”. Further, the Kb in data set [2] is 6.17 nM.
For `CCc1cc(OCc2ccc(-c3ccccc3-c3nnn[nH]3)cc2)cc(CC)n1` [Example 1, 2,6-Diethyl-4-[2'-(tetrazol-5-yl)biphenyl-4-yl]-methoxypyridine], in data set [1], the median effective dose (ED50) worked out at 0.6 mg/kg. For the same compound, the “inhibitory effect” value in data set [1] (dose of 1 mg/kg or less) is “significant inhibitory effects”. In data set [2], this compound showed a Kb of 5.25 nM. The same compound yielded a median lethal dose (LD50) in data set [3] of over 1000 mg/kg.
In the case of `Cc1cc(OCc2ccc(-c3ccccc3-c3nnn[nH]3)cc2)c(OCc2ccccc2)c(C)n1` [Example 21, 3-benzyloxy-2,6-dimethyl-4-[2'-(tetrazol-5-yl)biphenyl-4yl]-methoxypyridine], the “inhibitory effect” value in data set [1] (3 mg/kg) is “significant inhibitory effects”. Further, the Kb in data set [2] was 6.76 nM.

(Values after patent publication US5399566A, “Pyridine derivatives having angiotensin II antagonism” (Meiji Seika Kabushiki Kaisha, priority 1990, dated 1995).)
